Test [1] has as its system HUVE cells. Put plainly: HUVE cell migration, modified Boyden chamber. In kind it is cell-based, human. The method, then:
(§1) The migration assay of HUVE and HMEC-1 cells in modified Boyden chambers was adapted from previously described procedures (Murohara et al., Thromb. Vasc. Biol., 19: 1156-61 (1999), Malinda et al., FASEB J., 13: 53-62 (1999)). In brief, Biocoat Cell Environment control inserts (8 micron pore size; Becton Dickinson) were coated with 0.1% gelatin (Sigma) for at least 1 hour at 37° C. and air dried. Lower chambers contained 0.7 ml RPMI+0.1% BSA, to which 20 ng/ml HGF and/or 300 nM Grb2 inhibitors were added. Cells were pre-treated with the indicated concentrations of Grb2 inhibitors for 18-24 hours, trypsinized, washed twice in RPMI+0.1% BSA, added to upper chambers (5×10^4 cells/well) with or without inhibitors in a final volume of 0.5 ml, and incubated for 4 h at 37° C. Cells on the upper surface of each filter were removed with a cotton swab, while cells that had traversed to the bottom surface of the filter were fixed and stained using Diff-Quik (Dade Diagnostics) and counted using a 10× objective. Mean values from 4 randomly selected fields (1×1.4 mm) were calculated for each of triplicate wells per experimental condition. Shown in FIG. 6 is the ratio of growth factor-treated to control migrating cells designated on the y-axis as “Migration (Fold Increase)” or as the mean number of cells per optical field in FIGS. 8-11.

The subject of test [2] is HMEC-1 cells. Put plainly: Endothelial cell tubulogenesis assay on collagen (HMEC-1 collagen invasion). In kind it is cell-based, human. The protocol:
HMEC-1 cell tubulogenesis assay on collagen gels was adapted from a previously described procedure (Montesano et al., Cell, 42: 469-77 (1985), Pepper et al., Exp. Cell Res., 204: 356-63 (1993)). Cells were seeded onto collagen gels cast in 16-mm wells (2.5×10^4 cells/well) and grown to confluence in reduced growth medium (5% FCS and 150 μg/ml ECGS). At confluence cells were pre-treated with or without Grb2 inhibitors for 24 hours, after which time medium was replaced by fresh medium supplemented with or without the indicated concentration of inhibitors and/or 20 ng/ml HGF. Medium and compounds were changed every day. After 24 hours, the cultures were fixed in situ, and 5 randomly selected optical fields per experimental condition in each of three separate experiments were digitally recorded under phase contrast microscopy using a 20× phase contrast objective, by focusing 20 μm beneath the surface of the gel. Invasion was quantitated using IPLab software (Scanalytics, Fairfax, Va.) by measuring the total length of all cellular structures that had penetrated beneath the surface monolayer either as apparently single cells or in the form of cell cords. Values were compared using Student's unpaired t-test and a significant value was taken at P<0.001. Results set forth in FIG. 7 are the mean total length (in μm) per field.

A further test deals with TAC-2 cells. Briefly: Epithelial tube formation assay, TAC-2 cells in collagen gels. In kind it is cell-based. The conditions noted are these: for HGF-induced elongation of epithelial tubes (cord length): HGF 20 ng/ml, 3 days; for concentration at which a sub-maximal inhibitory effect is already observed: HGF-induced tube elongation. The method, then: TAC-2 cells were suspended in three-dimensional collagen gels at 1×10^4 cells/ml in collagen and incubated in complete medium containing HGF and/or Grb2 inhibitors as indicated. After 3 days, the cultures were fixed with 2.5% glutaraldehyde in 0.1 M cacodylate buffer, and at least 3 randomly selected fields per experimental condition in each of 3 separate experiments were digitally recorded with brightfield microscopy. The total length of the cords in each individual colony present in each optical field was measured with IPLab. Cord length was considered as “0” in: a) colonies with a spheroidal shape, and b) slightly elongated structures in which the length to diameter ratio was less than 2. The mean values for each experimental condition were compared to controls using the Student's unpaired t-test. Results in FIG. 5 are described as mean total cord length (in μm) per field.

The subject of another test is HUVECs. Put plainly: HUVE cell tubulogenesis assay on Matrigel. In kind it is cell-based, human. The protocol:
The HUVE tube formation assay was performed as previously described (Grant et al., J. Cell. Physiol., 153: 614-625 (1992)). Briefly, 96-well plates were coated with 90 μl of Matrigel (10 mg/ml) (Collaborative Research) (Baatout, supra) and incubated at 37° C. for 30 min to promote gelling. 10,000 HUVECs were resuspended in reduced growth medium (serum concentration 10% and 5 U/ml heparin) and added to each well with the indicated reagents in a final volume of 100 μl. After 18 h, the plates were fixed with Diff-Quik, and at least 4 randomly selected fields per experimental conditions were digitally recorded under bright field illumination using a 10× objective. The mean additive length of the cords present in each optical field was measured using IPLab and compared to controls using the Student's unpaired t-test.

The test system of test [3] is HMEC-1 cells. Put plainly: HMEC-1 cell migration, modified Boyden chamber. It counts as cell-based, human. The method, then:
as §1

A further test deals with MDCK cells. Put plainly: Extracellular matrix invasion assay, MDCK cells in collagen gels. In kind it is cell-based, canine. The conditions noted are these: peptide 100 nM. The method, then:
MDCK cell invasion into three-dimensional collagen gels was analyzed as previously described. Briefly, type I collagen (1.5 mg/ml; Cohesion Technologies) was mixed with 10×MEM and sodium bicarbonate (11.76 mg/ml) at a ratio of 8:1:1 (vol:vol:vol) on ice, and 0.4 ml aliquots were dispensed into 16-mm tissue culture wells (Nunc), and allowed to gel at 37° C. for 20 min. Cells were seeded onto gels (1×10^4 cells/well) in 0.4 ml of growth medium containing HGF and/or peptides 1 or 4 as indicated. After 5 days, cells were fixed in situ in 2.5% glutaraldehyde in 0.1 M sodium cacodylate buffer (pH 7.4), and cells that had invaded the gel below the surface monolayer in ten randomly selected fields (1×1.4 mm) were counted microscopically using a 20× phase contrast objective. Depth of cellular invasion into the collagen gel was quantitated in the same ten fields per treatment group using a calibrated fine focusing micrometer. Values were compared using the Student's unpaired t-test and a significant value was taken as P<0.001. Results in Table 1 are shown as the mean number of invading cells/field or mean invasion depth/cell in microns+standard error of the mean.
MDCK cells were left untreated (Control), treated with HGF (10 ng/ml), or HGF+peptide 2 or 4 (100 nM), and invasion into collagen matrices was quantitated microscopically as described above. Values are the mean of at least 10 randomly selected fields±standard error of the mean. Epithelial Tube Formation Assay

Test [4] relates to HUVE cells. Briefly: HUVE cell proliferation. The conditions noted are these: growth factor alone: HGF 25 ng/ml, VEGF 10 ng/ml, bFGF 5 ng/ml. It counts as cell-based, human. The method, then: HUVE or HMVE cells were seeded per triplicate in type I collagen-coated 48-well plates (Biocoat) (3000 cells/well) in […] of complete EGM-Bullet Kit medium (BioWhittaker, Walkersville, Md.), allowed to attach for 4 hr and incubated overnight with or without the indicated concentrations of peptide 2. The cultures were rinsed twice in serum-free medium and incubated with EBM medium (BioWhittaker) supplemented with 50 μg/ml heparin, 50 μg/ml ascorbic acid and 10% FCS. After either 4 days (HUVE) or 5 days (HMVE), cells were harvested with trypsin/EDTA and counted with an hemocytometer. The mean number of cells per ml was calculated from 3 independent measures for each of triplicate wells per experimental condition and compared to controls using the Student's unpaired t-test. Results set forth in FIG. 12 are described as the ratio of growth factor-treated to control proliferating cells designated on the y-axis as “Proliferation (Fold Increase)”.

A further test relates to NIH 3T3 fibroblasts. Put plainly: NIH 3T3 fibroblast migration, modified Boyden chamber. Particulars: PDGF-BB 50 ng/ml alone. It counts as cell-based. The method, then: as §1
PDGF is implicated in different biological processes such vascular remodeling, wound healing and cancer (for reviews, see Bornfeldt et al., Ann N Y Acad. Sci., 766:416-30, 1995; Gendron, Surv. Ophthalmol., 44:184-5, 1999). Addition of 50 ng/ml PDGF-BB to NIH 3T3 fibroblasts incubated in a modified Boyden chamber results in a dramatic, 20-fold increase in cell migration. […] This observation opens a potential therapeutical use of the Grb2 inhibitor compounds in the treatment of diseases such as cancer, wound healing disorders, vascular complications of diabetes mellitus, vascular nephropathies, and diseases with occurrence of fibrosis.

The mark [5] stands for this setting: peptide 300 nM, no growth factor.

`CCCCCCCCCCCCCC(=O)O[C@@H]1[C@@H](C)[C@@]2(O)[C@@H](C=C(CO)C[C@]3(O)C(=O)C(C)=C[C@@H]23)[C@@H]2C(C)(C)[C@]12OC(C)=O` [PMA, phorbol myristate acetate, reference compound]: in the test with HUVE cells [1] (PMA 40 ng/ml alone), the “increase of cell migration” value came out at 300%.

On to `NC(=O)C[C@H](NC(=O)C1(NC(=O)[C@H](Cc2ccc(CP(=O)(O)O)cc2)NC(=O)C(=O)O)CCCCC1)C(=O)NCCCc1cccc2ccccc12` [peptide 1, oxalyl-Pmp-Ac6c-Asn-NH-(3-naphthalen-1-yl-propyl)], for which the “collagen invasion induced by HGF” value in the test with HMEC-1 cells [2] (peptide 30-300 nM, HGF 20 ng/ml) is “suppressed”. The “HGF-induced elongation of epithelial tubes (cord length)” value with TAC-2 cells was “significantly (p<0.0001) abrogate”. Besides, the “concentration at which a sub-maximal inhibitory effect is already observed” value with TAC-2 cells is listed as 30 nM. In addition, the “elongation and branching of duct-like structures” value in the test with TAC-2 cells (co-addition with HGF 20 ng/ml) is “abrogated the elongation and branching of duct-like structures”. Moreover, the “bFGF-induced HUVEC migration” value in the test on HUVE cells [1] (peptide 300 nM) is “complete blockade”. Moreover, the “HGF-induced increase on cell motility” value was “practically reverted to basal levels” in the test with HUVE cells [1] (peptide 300 nM, HGF 20 ng/ml) and “practically reverted to basal levels” in the test on HMEC-1 cells [3] (peptide 300 nM, HGF 20 ng/ml). In addition, the “basal levels of endothelial cell motility” value in the test with HUVE cells [1] (setting [5]) and in the test with HMEC-1 cells [3] (setting [5]) was “did not significantly alter” in each case. The “mean length of the cords per optical field” value in the test with HUVECs (HGF/NK1 300 ng/ml, peptide 1 μM, 18 h) is 2502.8±108 μm. In the test on HUVECs (peptide 1 μM + HGF/NK1), the “extent of cord formation” value is “markedly reduced the extent of cord formation”. The “decrease in mean cord length vs HGF/NK1 alone” value in the test with HUVECs (peptide 1 μM + HGF/NK1 300 ng/ml) is 30%.

Consider `CC(=O)N[C@@H](Cc1ccc(C(C(=O)O)C(=O)O)cc1)C(=O)NC1(C(=O)N[C@@H](CC(N)=O)C(=O)NCCCc2cccc3ccccc23)CCCCC1` [peptide 3, (N-acetyl-4-malonyl)-Phe-Ac6c-Asn-NH-(3-naphthalen-1-yl-propyl)], for which, in the test with MDCK cells (HGF-stimulated), the “reduction of the mean depth of invasion per cell” value is given as “at least 50%” and the “reduction of the number of invading cells” value is recorded as “at least 50%”. Further, in the test on TAC-2 cells, the “HGF-induced elongation of epithelial tubes (cord length)” value is given as “significantly (p<0.0001) abrogate” and the “concentration at which a sub-maximal inhibitory effect is already observed” value worked out at 30 nM.

With “HGF: hepatocyte growth factor, recombinant human”, the “increase in collagen invasion” value with HMEC-1 cells [2] (HGF 20 ng/ml alone) amounted to 6 fold. Moreover, in the test on HUVE cells [4], the “increase in the mean number of HUVE cells per ml (proliferation)” value (“increase … per ml (proliferation)” for short) turned out to be 2.3 fold. In the test on MDCK cells (HGF 10 ng/ml, 5 days), the “Mean Invading Cells/Field” value turned out to be 29.7 ± 2.6 and the “Mean Invasion Depth/Cell” value came out at 35.6 ± 2.7 μm. Moreover, in the test on HUVE cells [1] (HGF 20 ng/ml alone), the “increase on cell motility induced by growth factor” value amounted to 3.5 fold. Besides, the “increase on cell motility induced by growth factor” value with HMEC-1 cells [3] (HGF 20 ng/ml alone) is listed as 5.5 fold.

Consider VEGF, for which the “increase … per ml (proliferation)” value with HUVE cells [4] worked out at 2 fold.

As for “bFGF: human recombinant basic fibroblast growth factor”, in the test with HUVE cells [4], the “increase … per ml (proliferation)” value was found to be 4.1 fold.

B1: PDGF-BB: platelet-derived growth factor used to stimulate NIH 3T3 migration (protein, UniProt P01127 82-190, looked up)
Platelet-derived growth …: SLGSLTIAEPAMIAECKTRTEVFEISRRLIDRTNANFLVWPPCVEVQRCSGCCNNRNVQCRPTQVQLRPVQVRKIEIVRKKPIFKKATVTLEDHLACKCETVAAARPVT
modifications: homodimer
notes: platelet-derived growth factor used to stimulate NIH 3T3 migration
Take B1: the “increase in cell migration” value in the test on NIH 3T3 fibroblasts amounted to 20 fold.

The values are drawn from patent publication US7871981B2, “Inhibition of cell motility, angiogenesis, and metastasis” (The United States of America as represented by the …, priority 1999, dated 2011).
